In publication PMC10135050, “Neutralizing Carbapenem Resistance by Co-Administering Meropenem with Novel β-Lactam-Metallo-β-Lactamase Inhibitors” (Antibiotics, 2023):

How the values were obtained:
[1] = design: method as in PMID 32179522; settings: cited from earlier work
[2] = in vivo; cited from earlier work
[3] = target: T1, Recombinant human glyoxylase II (Glo2) (Homo sapiens, UniProt Q16775); test: Non-specific binding to zinc in non-MBLs, glyoxylase II activity; type: biochemical; settings: 50–500 µM
T1 construct: purchased BioVision Inc., Waltham, MA, USA
Source text: Metal chelators are known to suffer from off-target specificity and as a result have been criticized as potential MBLIs in vivo [44].
The methodology has been previously described. EDTA (purchased from Merck KGaA, Darmstadt, Germany) was included as a positive control.

[4] = design: method as in PMID 26849010, PMID 32903882; settings: cited from earlier work

CN(C[C@H](O)[C@@H](O)[C@H](O)[C@H](O)CO)C(=O)c1ccc(CN(Cc2ccccn2)Cc2ccccn2)nc1 [ZN148]
Decrease in the bacterial load in vivo [1]: approximately 3 log10 units

COC(=O)C(CC(=O)N[C@@H]1C(=O)N2C(C(=O)O)=C(C[n+]3ccccc3)CS[C@H]12)N1CCN(CC(=O)O)CCN(CC(=O)O)CC1 (some centres unmarked) [BP1]
Decrease in the bacterial load in vivo [1]: approximately 3 log10 units

O=C(O)CN1CCN(CC(=O)O)CCN(CC(=O)O)CC1 [NOTA]
Bioavailability [2]: poor bioavailability

O=C(O)CN(CCN(CC(=O)O)CC(=O)O)CC(=O)O [EDTA, reference compound]
Glyoxylase II activity [3]: significantly reduced

c1ccc(CN(CCN(Cc2ccccn2)Cc2ccccn2)Cc2ccccn2)nc1 [TPEN, N,N,N′,N′-Tetrakis (2-Pyridylmethyl) Ethylenediamine]
Cytotoxicity [4]: cytotoxicity
